# Data as given in PMC10483525, “Synthesis, Structural Investigations, DNA/BSA Interactions, Molecular Docking Studies, and Anticancer Activity of a New 1,4-Disubstituted 1,2,3-Triazole Derivative” (ACS Omega, 2023).
# How the values were obtained:
# Caco-2 cells = assay: MMP determination (TMRE, flow cytometry); type: cell-based, human; conditions: Caco-2, 48 h, 7.5, 15, 30 μM
# Procedure: Briefly, Caco-2 (5x10^5 per well) were seeded in 6-well plates for 24 h and either untreated or treated with a various concentrations of compound 3 (7.5, 15, 30 μM) for addional 48 h.
# Following treatment, cells were harvested and were incubated with 50 nM BD PharmingenTM MitoStatus TMRE for 30 min at 37°C, 5% CO2, followed by resuspending twice with pre-warmed PBS (2000 rpm×3 min). Quantitative changes in mitochondrial membrane potential (MMP) at the early stage of cell apoptosis were measured using BD PharmingenTM MitoStatus TMRE (BD Biosciences, San Jose, CA, USA) and detected by flow cytometry (BD
# Caco-2 = assay: MTT assay; type: cell-based, human; conditions: for IC50: Homo sapiens
# Procedure: Human cancer cell lines (MDA-MB-231, LNCaP, Caco-2) and a human healthy cell line (HEK-293) were obtained from the European Collection of Cell Cultures. The cells were incubated in a humidified incubator (37 °C, 5% CO2) and cultured under standard conditions in Dulbecco’s modified Eagle medium (DMEM), 10% heat-inactivated fetal bovine serum, 100 U mL^–1 penicillin, 100 U mL^–1 streptomycin, and 4 mM L-glutamine. […] A cell culture medium was used to make further dilutions, while keeping the equivalent of DMF below 0.5% of the total volume.[94] […]
# 7. Cell Viability Inhibition Assay
# MDA-MB-231, LNCaP, Caco-2 and HEK-293 cells (5x10^3 per well) seeded in 96-well plates to assess cell viability by the 3-[4,5-dimethylthiazol-2-yl]-2,5-diphenyltetrazolium bromide (MTT) assay for 24 h at 37°C. Then cells were treated with compound 3 at different concentrations (3-100 µM) at 100μl/well. […]
# and etoposid was used as positive controls under identical conditions. After 24, 48 and 72 h incubation, 5 mg/ml MTT solution (20 μl/well) was added and cultured for another 4 h. Then, the supernatant was discarded and dimethyl sulfoxide was added (100 μl/well). The absorbance (A) was measured spectrophotometrically at 540 nm by a Microplate Reader (SpectraMax i3x).
# A graph was plotted between the concentrations of the extract versus the percent viability. The […]
# calculated from graph. All assays were performed in three replicates per concentration level. 11 […]
compound,measurement,setting,value
"O=Cc1ccc(OCc2cn(-c3ccc(Cl)c(Cl)c3)nn2)cc1O [Compound 3, 4-((1-(3,4-Dichlorophenyl)-1H-1,2,3-triazol-4-yl)methoxy)-2-hydroxybenzaldehyde]",loss of mitochondrial membrane potential (MMP),Caco-2 cells,significant increase in MMP loss
same,SI HEK-293/Caco-2,"Caco-2; 48 h, SI = IC50 on normal cells/IC50 on cancer cells",1.46
same,"SI, times higher than cisplatin",Caco-2; Caco-2 cells,10 times
same,IC50,"Caco-2; Caco-2, 24 h",31.7 ± 0.34 µM
same,IC50,"Caco-2; Caco-2, 48 h",16.6 ± 0.27 µM
same,IC50,"Caco-2; Caco-2, 72 h",11.77 ± 0.01 µM
